Assay results as given in patent US10065990B2, “Cyclic peptide compound, and preparation method, pharmaceutical composition and use thereof” (HANGZHOU GUANYU BIO-MEDICAL CO., LTD, priority 2013, dated 2018).
Like-named read-outs stand apart in the source and are kept apart here.

What was measured:
HDAC7 = target: T1, HDAC7 (Homo sapiens, UniProt Q8WUI4); test: HDAC biochemical activity measurement (fluorescent substrate deacetylation);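 as to all read-outs here: fluorogenic deacetylation assay using acetyl-lysine substrate at 20 µM, enzyme and compound incubated 30 min at 37 °C, then developer added, fluorescence read at 360/460 nm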; conditions: for IC50 HDAC7: 37° C. 30 minutes
T1 sequence (Q8WUI4 1-952): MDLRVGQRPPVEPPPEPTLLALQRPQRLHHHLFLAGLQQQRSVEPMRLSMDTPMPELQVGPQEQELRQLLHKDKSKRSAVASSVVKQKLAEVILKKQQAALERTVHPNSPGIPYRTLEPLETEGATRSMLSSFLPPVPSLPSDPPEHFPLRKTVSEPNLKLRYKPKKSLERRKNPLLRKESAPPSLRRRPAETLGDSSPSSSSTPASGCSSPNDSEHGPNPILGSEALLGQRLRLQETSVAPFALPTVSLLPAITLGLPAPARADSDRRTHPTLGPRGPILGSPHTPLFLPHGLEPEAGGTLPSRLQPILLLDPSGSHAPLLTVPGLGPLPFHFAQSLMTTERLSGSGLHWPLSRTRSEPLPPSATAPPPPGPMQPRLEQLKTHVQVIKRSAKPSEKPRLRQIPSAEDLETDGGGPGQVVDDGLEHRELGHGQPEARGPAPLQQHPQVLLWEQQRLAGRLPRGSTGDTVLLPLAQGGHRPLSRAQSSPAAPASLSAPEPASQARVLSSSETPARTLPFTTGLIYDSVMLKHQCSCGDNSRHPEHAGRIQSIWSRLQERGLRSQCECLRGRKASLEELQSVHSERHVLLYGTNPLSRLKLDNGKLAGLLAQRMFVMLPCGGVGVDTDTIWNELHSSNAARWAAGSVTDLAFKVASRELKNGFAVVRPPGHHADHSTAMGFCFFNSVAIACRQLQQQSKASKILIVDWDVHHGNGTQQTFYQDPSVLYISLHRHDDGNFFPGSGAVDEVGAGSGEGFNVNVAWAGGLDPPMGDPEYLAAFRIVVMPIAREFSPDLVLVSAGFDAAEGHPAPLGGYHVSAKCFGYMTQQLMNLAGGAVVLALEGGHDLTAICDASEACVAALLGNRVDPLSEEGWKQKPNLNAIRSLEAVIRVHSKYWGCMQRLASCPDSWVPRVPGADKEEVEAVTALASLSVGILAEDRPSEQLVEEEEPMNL

[1] = system: A549 (human lung cancer cells); test: MTT cancer cell growth inhibition; type: cell-based; conditions: Homo sapiens, A549, 72 h, MTT, 72 hours incubation, read-out: GI50 A54
Outline: (§1)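 GI50 values come from viability measured by MTT reduction at 570 nm. Plated overnight at 1500 cells per well, cultures received drug in three parallel wells across 10^−5–10^−10 M final and were incubated 72 h at 37° C. under 5% CO2 before MTT for 4 h.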

[2] = system: BGC-823 (human gastric cancer cells); test: MTT cancer cell growth inhibition; type: cell-based; conditions: Homo sapiens, BGC-823, 72 h, MTT, 72 hours incubation, read-out: GI50 BG
Outline: as §1

[3] = system: Bel-7402 (human hepatoma cells); test: MTT cancer cell growth inhibition; type: cell-based; conditions: Homo sapiens, Bel-7402, 72 h, MTT, 72 hours incubation, Bel-7402 cells; read-out: GI50 Bel-7402
Outline: as §1

[4] = system: DU145 (human prostate cancer cells); test: MTT cancer cell growth inhibition; type: cell-based; conditions: Homo sapiens, DU-145, 72 h, MTT, 72 hours incubation, read-out: GI50 Du1
Outline: as §1

[5] = system: H1975 (non-small cell lung adenocarcinoma); test: MTT cancer cell growth inhibition; type: cell-based; conditions: Homo sapiens, NCI-H1975, 72 h, MTT, 72 hours incubation, H1975 cells; read-out: GI50 H1975
Outline: as §1

[6] = system: HCC827 (human non-small cell lung cancer cells); test: MTT cancer cell growth inhibition; type: cell-based; conditions: Homo sapiens, HCC827, 72 h, MTT, 72 hours incubation, HCC827 cells; read-out: GI50 HCC827
Outline: as §1

[7] = system: HT1080 (human fibrosarcoma cells); test: MTT cancer cell growth inhibition; type: cell-based; conditions: Homo sapiens, HT-1080, 72 h, MTT, 72 hours incubation, read-out: GI50 HT1
Outline: as §1

[8] = system: Hela (human cervical cancer cells); test: MTT cancer cell growth inhibition; type: cell-based; conditions: Homo sapiens, HeLa, 72 h, MTT, 72 hours incubation, read-out: GI50 Hela
Outline: as §1

[9] = system: Huh-7 (human hepatoma cells); test: MTT cancer cell growth inhibition; type: cell-based; conditions: Homo sapiens, Huh-7, 72 h, MTT, 72 hours incubation, Huh-7 cells; read-out: GI50 Huh-7
Outline: as §1

[10] = system: K562 (human leukemia cells); test: MTT cancer cell growth inhibition; type: cell-based; conditions: Homo sapiens, K562, 72 h, MTT, 72 hours incubation, K562 cells; read-out: GI50 K562
Outline: as §1

[11] = system: KBM-5 (human chronic myelogenous leukemia); test: MTT cancer cell growth inhibition; type: cell-based; conditions: Homo sapiens, KBM5, 72 h, MTT, 72 hours incubation, KBM-5 cells; read-out: GI50 KBM-5
Outline: as §1

[12] = system: KBM5-T315I (human chronic myelogenous leukemia); test: MTT cancer cell growth inhibition; type: cell-based; conditions: Homo sapiens, 72 h, MTT, 72 hours incubation, KBM5-T315I cells; read-out: GI50 KBM5-T315I
Outline: as §1

[13] = system: MCF-7 (human breast cancer cells); test: MTT cancer cell growth inhibition; type: cell-based; conditions: Homo sapiens, MCF7, 72 h, 72 hours incubation, read-out: GI50 MCF
Outline: as §1

[14] = system: MDA-MB-231 (breast cancer cells); test: MTT cancer cell growth inhibition; type: cell-based; conditions: Homo sapiens, MDA-MB-231, 72 h, read-out: GI50 MDA-MB-231, MTT, 72 hours incubation, MDA-MB-231 cells
Outline: as §1

[15] = system: MOLT-4 (human acute lymphoblastic leukemia cells); test: MTT cancer cell growth inhibition; type: cell-based; conditions: Homo sapiens, MOLT-4, 72 h, MTT, 72 hours incubation, read-out: GI50 Mol
Outline: as §1

[16] = system: N-87 (human gastric cancer cells); test: MTT cancer cell growth inhibition; type: cell-based; conditions: Homo sapiens, 72 h, MTT, 72 hours incubation, N-87 cells; read-out: GI50 N-87
Outline: as §1

[17] = system: PANC-1 (Pac-1, human pancreatic cancer cells); test: MTT cancer cell growth inhibition; type: cell-based; conditions: Homo sapiens, PANC-1, 72 h, MTT, 72 hours incubation, read-out: GI50 PAN
Outline: as §1

[18] = system: SGC-7901 (human gastric cancer cells); test: MTT cancer cell growth inhibition; type: cell-based; conditions: Homo sapiens, SGC-7901, 72 h, MTT, 72 hours incubation, SGC-7901 cells; read-out: GI50 SGC-7901
Outline: as §1

[19] = system: U937 (human leukemia cells); test: MTT cancer cell growth inhibition; type: cell-based; conditions: Homo sapiens, U-937, 72 h, MTT, 72 hours incubation, read-out: GI50 U93
Outline: as §1

[20] = system: lncap (prostate cancer cells); test: MTT cancer cell growth inhibition; type: cell-based; conditions: Homo sapiens, LNCaP, 72 h, MTT, 72 hours incubation, read-out: GI50 lnca
Outline: as §1

| SMILES | IC50 HDAC7 (HDAC7) | GI50 [3] [µM] | GI50 [5] [µM] | GI50 [6] [µM] | GI50 [9] [µM] | GI50 [10] [µM] | GI50 [11] [µM] | GI50 [12] [µM] | GI50 [14] [µM] | GI50 [16] [µM] | GI50 [18] [µM] | GI50 ([1]; A549 cells) [µM] | GI50 ([2]; BGC-823 cells) [µM] | GI50 ([4]; DU145 cells) [µM] | GI50 ([7]; HT1080 cells) [µM] | GI50 ([8]; Hela cells) [µM] | GI50 ([13]; MCF-7 cells) [µM] | GI50 ([15]; MOLT-4 cells) [µM] | GI50 ([17]; PANC-1 cells) [µM] | GI50 ([19]; U937 cells) [µM] | further results |
| --- | --- | --- | --- | --- | --- | --- | --- | --- | --- | --- | --- | --- | --- | --- | --- | --- | --- | --- | --- | --- | --- |
| C/C=C1\NC(=O)c2nc(ccc2F)CNC(=O)C[C@@H](/C=C/CCSC(C)=O)OC(=O)[C@@H](C)NC1=O [Compound 100] | no activity | 0.071 | 0.053 | 0.017 | 0.027 | 0.034 | 0.035 | 0.031 | 0.078 | 0.032 | 0.057 |  |  |  |  |  |  |  |  |  | GI50 [1]: 0.05 µM; GI50 [2]: 0.02 µM; GI50 [4]: 0.02 µM; GI50 [7]: 0.09 µM; GI50 [8]: 0.07 µM; GI50 [13]: 0.02 µM; GI50 [15]: 0.03 µM; GI50 [17]: 0.09 µM; GI50 [19]: 0.06 µM; GI50 [20]: 0.03 µM |
| C/C=C1\NC(=O)c2cc(SC)cc(n2)CNC(=O)C[C@@H](/C=C/CCSC(C)=O)OC(=O)[C@H](CCCCNC(=O)OCC2c3ccccc3-c3ccccc32)NC1=O [Compound 196] | no activity | 0.089 | 0.062 | 0.064 | 0.023 | 0.058 | 0.028 | 0.093 | 0.085 | 0.056 | 0.045 | 0.02 | 0.05 | 0.13 | 0.07 | 0.08 | 0.06 | 0.03 | 0.06 | 0.06 | GI50 ([20]; lncap cells): 0.06 µM |
| C/C=C1\NC(=O)c2cc(SCC)cc(n2)CNC(=O)C[C@@H](/C=C/CCSC(=O)CCCCCCC)OC(=O)[C@H](C(C)C)NC1=O [Compound 248] |  | 0.029 | 0.065 | 0.093 | 0.033 | 0.048 | 0.023 | 0.072 | 0.045 | 0.083 | 0.026 | 0.03 | 0.06 | 0.03 | 0.05 | 0.06 | 0.03 | 0.03 | 0.02 | 0.08 | IC50 (μM) HDAC7 (HDAC7): no activity; GI50 ([20]; lncap cells): 0.03 µM |
| C=C1NC(=O)c2nc(ccc2F)CNC(=O)C[C@@H](/C=C/CCS)OC(=O)[C@H](C)NC1=O [Compound 140] | no activity | 0.079 | 0.063 | 0.021 | 0.042 | 0.039 | 0.031 | 0.033 | 0.031 | 0.055 | 0.044 |  |  |  |  |  |  |  |  |  | GI50 [1]: 0.03 µM; GI50 [2]: 0.1 µM; GI50 [4]: 0.06 µM; GI50 [7]: 0.05 µM; GI50 [8]: 0.13 µM; GI50 [13]: 0.08 µM; GI50 [15]: 0.05 µM; GI50 [17]: 0.03 µM; GI50 [19]: 0.07 µM; GI50 [20]: 0.02 µM |
| C/C=C1\NC(=O)c2nc(ccc2SC)CNC(=O)C[C@@H](/C=C/CCSC(=O)CCCCCC)OC(=O)[C@H](C(C)C)NC1=O [Compound 150] | no activity | 0.058 | 0.079 | 0.063 | 0.046 | 0.055 | 0.026 | 0.039 | 0.021 | 0.033 | 0.087 | 0.03 | 0.03 | 0.04 | 0.08 | 0.06 | 0.04 | 0.08 | 0.03 | 0.03 | GI50 ([20]; lncap cells): 0.06 µM |
| C/C=C1\NC(=O)c2ccc(SC)c(n2)CNC(=O)C[C@@H](/C=C/CCSC(=O)CCCCCC)OC(=O)[C@H](C(C)C)NC1=O [Compound 152] | no activity | 0.047 | 0.038 | 0.035 | 0.028 | 0.011 | 0.041 | 0.029 | 0.065 | 0.035 | 0.023 | 0.05 | 0.05 | 0.06 | 0.09 | 0.06 | 0.06 | 0.09 | 0.05 | 0.05 | GI50 ([20]; lncap cells): 0.06 µM |
